From publication PMC8348310, “Antioxidants Isolated from Elaeagnus umbellata (Thunb.) Protect against Bacterial Infections and Diabetes in Streptozotocin-Induced Diabetic Rat Model” (Molecules, 2021)
Converted amounts (≈) assume the structure as drawn.

Columns and labels:
[1] = biological target: Type-I α-glucosidase (Baker Yeast) (Saccharomyces cerevisiae, UniProt P53341); experiment: In vitro α-glucosidase inhibition assay (PNPG); format: biochemical; settings: read-out: % α-Glucosidase Inhibition Mean ± SEM
Type-I α-glucosidase (Baker Yeast), sequence (P53341 whole entry): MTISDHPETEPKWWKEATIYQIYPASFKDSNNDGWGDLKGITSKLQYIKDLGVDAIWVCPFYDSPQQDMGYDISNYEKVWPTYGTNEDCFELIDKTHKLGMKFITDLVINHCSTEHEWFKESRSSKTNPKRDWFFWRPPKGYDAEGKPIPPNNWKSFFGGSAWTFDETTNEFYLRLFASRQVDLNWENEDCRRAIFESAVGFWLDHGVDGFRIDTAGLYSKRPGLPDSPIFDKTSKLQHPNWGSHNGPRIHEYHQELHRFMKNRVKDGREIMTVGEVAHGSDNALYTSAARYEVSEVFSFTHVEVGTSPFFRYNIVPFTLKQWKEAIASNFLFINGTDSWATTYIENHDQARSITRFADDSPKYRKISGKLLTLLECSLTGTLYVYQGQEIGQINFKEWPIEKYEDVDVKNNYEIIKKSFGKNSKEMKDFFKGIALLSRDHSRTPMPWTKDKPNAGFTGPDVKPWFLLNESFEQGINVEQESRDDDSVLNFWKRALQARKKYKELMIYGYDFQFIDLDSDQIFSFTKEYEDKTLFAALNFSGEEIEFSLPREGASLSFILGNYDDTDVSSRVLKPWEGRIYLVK
From the text: Chemicals such as Tween-80 (Scharlau-chem., Barcelona, Spain), normal saline solution (Utsoka Pharma, Las Bela Baluchistan, Pakistan), lipid profile tests kits (Human, Hamburg, Germany), renal profile tests kits, and antioxidant enzymes kits (Biomed: Germany; diagnostic) were used in in vivo study. Mueller Hinton (MH) agar and broth (Merck, Modderfontein, South Africa) were used to culture the bacterial strains. Various solvents such as methanol, n-hexane, ethyl acetate, and chloroform (Merck, Darmstadt, Germany) were also used in this study.
The α-glucosidase inhibition potential of morin was determined according to the reported method with minor changes. The reaction mixture was prepared by taking 100 μL α-glucosidase (0.5 unit/mL), 600 μL phosphate buffer (0.1 M; pH 6.9), and 50 μL of isolated compounds (morin, phloroglucinol, and 1-hexyl benzene) with serial dilutions of 31.05, 62.5, 125, 250, 500 and 1000 µg/mL. All the reaction mixtures were incubated at 37 °C for 15 min. The enzymatic reactions were started by adding 100 μL substrate (p-nitro-phenyl-α-D-glucopyranoside) solution (5 mM) formed in phosphate buffer (0.1 M; pH 6.9), finally incubated at 37 °C for 15 min. The reaction was completed by adding sodium carbonate (400 μL; 0.2 M) solution and then at 405 nm absorbance was measured. The blank solution was prepared containing only isolated compounds without α-glucosidase. Percent α-glucosidase inhibition potential was calculated using Equation (3): (3) % α − glucosidase Inhibition =control absorbance−sample absorbance/control absorbance×100
All the in vitro and in vivo experiments were analyzed in three replicates and determined as mean ± SEM. Student’s t-test and one way ANOVA followed by Dunnett’s post hoc multiple comparison test was used. p ≤ 0.05 were considered as significant. Linear regression analysis was used to calculate the IC50 value for % DPPH, ABTS, α-amylase, and α-glucosidase inhibition against the different concentrations of the test samples by means of Excel program 2007.

Bacillus cereus = experiment: Agar well diffusion, zone of inhibition; format: cell-based; settings: 37 °C, 24 h; for Zone of Inhibition: 100 µg/mL
Description: (§1) Antibacterial potential of isolated compound was investigated against both Gram-positive and Gram-negative bacterial strains; Escherichia coli, Bacillus cereus, Salmonella typhi, Klebsiella pneumonia, Pseudomonas aeruginosa and Proteus mirabilis. Bacterial strains were provided by the Department of Pharmacy, University of Malakand, Khyber Pakhtunkhwa, Pakistan, and were kept at 4 °C in agar slants in freeze-dried condition until further use.
(§2) Both Gram-positive and Gram-negative bacterial strains Escherichia coli, Bacillus cereus, Salmonella typhi, Klebsiella pneumonia, Pseudomonas aeruginosa and Proteus mirabilis organism viable count per mL in the stock suspension was determined using surface viable counting technique. About 10^8–10^9 colony-forming units (CFU) per mL were used as inoculum in subsequent experiments. A fresh stock suspension was used each time.
(§3) The antibacterial activity of the isolated compounds (morin, phloroglucinol, and 1-hexyl benzene) was determined using agar well diffusion method. Muller–Hinton agar media was prepared and autoclaved at 15 lbs pressure for 20 min and cooled to 45 °C. The standard bacterial stock suspension 10^8–10^9 CFU/mL were spread on Muller–Hinton agar plates and five wells (3 mm in diameter; four on side and one in center) were punched in plates using a sterile cork borer. The entire wells were filled with 100 µL of the isolated compounds (stock solution: 1 mg/mL) using microtiter-pipette and allowed to diffuse at room temperature for 2 h. The plates were incubated at 37 °C for 24 h. In the center hole, Imipenem was added which served as positive control. Simultaneous, addition of an equal concentration of DMSO solvent instead of isolated compounds was used as blank. After incubation, the zones of inhibition were measured in millimeters (mm) and mean values were calculated. The experiments were performed in triplicates.

Escherichia coli = experiment: Agar well diffusion, zone of inhibition; format: cell-based; settings: 37 °C, 24 h; for Zone of Inhibition: 100 µg/mL
Description: as §1, §2, §3

Klebsiella pneumonia = experiment: Agar well diffusion, zone of inhibition; format: cell-based; settings: 37 °C, 24 h; for Zone of Inhibition: 100 µg/mL; for zone of inhibition at 100 µg/mL: Klebsiella pneumoniae
Description: as §1, §2, §3

Proteus mirabilis = experiment: Agar well diffusion, zone of inhibition; format: cell-based; settings: 37 °C, 24 h; for Zone of Inhibition: 100 µg/mL
Description: as §1, §2, §3

Pseudomonas aeruginosa = experiment: Agar well diffusion, zone of inhibition; format: cell-based; settings: 37 °C, 24 h; for Zone of Inhibition: 100 µg/mL
Description: as §1, §2, §3

Staphylococcus aureus [2] = experiment: Agar well diffusion, zone of inhibition; format: cell-based; settings: 37 °C, 24 h; for Zone of Inhibition: 100 µg/mL
Description: as §3, with “The standard bacterial stock suspension 10^8–10^9 CFU/mL were spread on Muller–Hinton agar plates and five wells (3 mm in diameter; four on side and one in center) were punched in plates using a sterile cork borer.” left out

Staphylococcus aureus [3] = experiment: Broth dilution MIC determination; format: cell-based; settings: 37 °C, 24 h, read-out: Minimum Inhibitory Concentrations
Description: Stock solutions of morin, phloroglucinol, and 1-hexyl benzene were prepared in dimethylsulphoxide (DMSO). […] Sterile centrifuge tubes were arranged in sets of rows for each bacterial inoculum to cover the different concentration of isolated compounds in triplicate. […] A sterility control tube and a growth control tube were also incubated (for each strain). The tubes were incubated at 37 °C for 24 h. After incubation, 40 μL of a 0.4 mg/mL solution of para iodonitrotetrazolium (INT) chloride was added to each tube as an indicator of microbial growth. […] The evaluation for the inhibition of microbial growth was based on the color change of INT to pink, while no color change indicates the absence of growth. The MIC is the lowest concentration of the compounds at which there is no visible growth in the tubes. The concentration that inhibited bacterial growth completely (the first clear tube) was taken as the MIC value. Experiments were performed in triplicate and mean values are presented. […] A negative control experiment was conducted using only DMSO.

SMILES | inhibition at 31.05 µg/mL [1] [%] | inhibition at 62.5 µg/mL [1] [%] | inhibition at 125 µg/mL [1] [%] | inhibition at 250 µg/mL [1] [%] | inhibition at 500 µg/mL [1] [%] | inhibition at 1000 µg/mL [1] [%] | Zone of Inhibition (Bacillus cereus) [mm] | zone of inhibition at 100 µg/mL (Bacillus cereus) [mm] | Zone of Inhibition (Escherichia coli) [mm] | zone of inhibition at 100 µg/mL (Escherichia coli) [mm] | Zone of Inhibition (Klebsiella pneumonia) [mm] | zone of inhibition at 100 µg/mL (Klebsiella pneumonia) [mm] | Zone of Inhibition (Proteus mirabilis) [mm] | zone of inhibition at 100 µg/mL (Proteus mirabilis) [mm] | Zone of Inhibition (Pseudomonas aeruginosa) [mm] | zone of inhibition at 100 µg/mL (Pseudomonas aeruginosa) [mm] | Zone of Inhibition (Staphylococcus aureus [2]) [mm] | zone of inhibition at 100 µg/mL (Staphylococcus aureus [2]) [mm] | MIC (Staphylococcus aureus [3]) [µg/mL]
CCCCCCc1ccccc1 [1-Hexyl benzene, 1-hexylbenzene] | 28 ± 1.2 | 32 ± 0.4 | 39 ± 1.1 | 45 ± 0.5 | 50 ± 1.2 | 58 ± 2.1 | 8.5 ± 0.1 | 8.5 ± 0.1 | 9.3 ± 1.1 | 9.3 ± 1.1 | 6.3 ± 0.5 | 6.3 ± 0.5 | 4.5 ± 1.5 | 4.5 ± 1.5 | 5.5 ± 0.5 | 5.5 ± 0.5 | 3.4 ± 0.4 | 3.4 ± 0.4 | 205 ± 2.1 (≈ 1260 µM)
Oc1cc(O)cc(O)c1 [Phloroglucinol, Benzene-1,3,5-triol] | 27 ± 1 | 30 ± 1.4 | 37 ± 1.5 | 43 ± 0.4 | 48 ± 0.5 | 55 ± 2.1 | 13 ± 1.2 | 13 ± 1.2 | 15 ± 0.3 | 15 ± 0.3 | 11 ± 0.5 | 11 ± 0.5 | 7.5 ± 0.2 | 7.5 ± 0.2 | 10 ± 1.1 | 10 ± 1.1 | 9.5 ± 2.1 | 9.5 ± 2.1 | 192 ± 2.3 (≈ 1520 µM)
O=c1c(O)c(-c2ccc(O)cc2O)oc2cc(O)cc(O)c12 [Morin, 2-(2,4-Dihydroxyphenyl)-3,5,7-trihydroxychromen-4-one] | 42 ± 1.4 | 48 ± 0.3 | 52 ± 0.5 | 59 ± 1.4 | 66 ± 0.4 | 79 ± 1 | 17 ± 0.1 | 17 ± 0.1 | 19 ± 1.1 | 19 ± 1.1 | 15 ± 0.5 | 15 ± 0.5 | 11 ± 1.5 | 11 ± 1.5 | 14 ± 0.5 | 14 ± 0.5 | 13 ± 0.4 | 13 ± 0.4 | 68 ± 1.3 (≈ 225 µM)
